# In publication doi:10.1101/2024.06.07.597859v1 (biorxiv, 2024):
# Target: T1, PfTSEN1 (Plasmodium falciparum, UniProt A0A144A1E9)
# T1 sequence (A0A144A1E9 1-220): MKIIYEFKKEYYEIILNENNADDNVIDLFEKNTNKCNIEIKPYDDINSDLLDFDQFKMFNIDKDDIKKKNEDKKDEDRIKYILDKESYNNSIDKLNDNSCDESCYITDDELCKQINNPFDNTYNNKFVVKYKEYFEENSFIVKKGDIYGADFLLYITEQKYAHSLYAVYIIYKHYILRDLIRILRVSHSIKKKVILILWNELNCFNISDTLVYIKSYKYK
# Assay: microscale thermophoresis
# Assay type: binding
compound,measurement,value
"NCCCn1ccc2c1C(=O)c1cccnc1C2=O [TSENi, 1-(3-aminopropyl)-1H-pyrrolo[2,3-f]quinoline-4,9-dione]",Kd,945 nM
